Results from US11781119B2, “Variant forms of urate oxidase and use thereof” (Horizon Therapeutics USA, Inc., priority 2005, dated 2023).

Assays:
Type in all cases: biochemical
Settings in all cases: uric acid; sodium borate buffer, pH 9.2
[1] = test system: Pig-baboon chimera (PBC) uricase, recombinant, pig uricase codons 1-225 joined in-frame to codons 226-304 of baboon uricase
Text: Pig-baboon chimera (PBC) uricase was constructed in order to gain higher expression, stability, and activity of the recombinant gene. […] The PBC uricase cDNA consists of the pig uricase codons 1-225 joined in-frame to codons 226-304 of baboon uricase.

[2] = test system: Pig-baboon chimera (PBC) uricase variant PBC-ΔNC, recombinant, N-terminal six residues and C-terminal tri-peptide removed, SEQ ID NO. 12
Experimental: (§1) Activity of uricase was measured by a UV method. […] Uricase potency is expressed in activity units per mg protein (U/mg).
(§2) The absorbance change with time (ΔA292 per minute) was derived from the linear portion of the curve.
(§3) The specific activity (potency) of uricase was calculated by dividing the activity in U/ml with protein concentration in mg/ml.

[3] = biological target: T1, Pig uricase, native, commercial preparation (Sigma) (Sus scrofa, UniProt P16164)
T1 sequence (P16164 1-304): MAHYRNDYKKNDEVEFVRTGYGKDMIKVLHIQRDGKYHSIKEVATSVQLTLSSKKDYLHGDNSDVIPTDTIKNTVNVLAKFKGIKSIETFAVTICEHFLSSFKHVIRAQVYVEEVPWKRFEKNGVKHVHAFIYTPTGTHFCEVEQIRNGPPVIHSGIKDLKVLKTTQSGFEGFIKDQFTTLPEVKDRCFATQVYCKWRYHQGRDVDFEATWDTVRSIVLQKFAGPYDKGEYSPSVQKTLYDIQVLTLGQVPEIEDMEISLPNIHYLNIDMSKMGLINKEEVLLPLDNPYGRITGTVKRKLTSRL
Experimental: as §1, §2, §3

[4] = biological target: T2, Aspergillus flavus uricase, native, commercial preparation (Merck) (Aspergillus flavus, UniProt Q00511)
T2 sequence (Q00511 1-302): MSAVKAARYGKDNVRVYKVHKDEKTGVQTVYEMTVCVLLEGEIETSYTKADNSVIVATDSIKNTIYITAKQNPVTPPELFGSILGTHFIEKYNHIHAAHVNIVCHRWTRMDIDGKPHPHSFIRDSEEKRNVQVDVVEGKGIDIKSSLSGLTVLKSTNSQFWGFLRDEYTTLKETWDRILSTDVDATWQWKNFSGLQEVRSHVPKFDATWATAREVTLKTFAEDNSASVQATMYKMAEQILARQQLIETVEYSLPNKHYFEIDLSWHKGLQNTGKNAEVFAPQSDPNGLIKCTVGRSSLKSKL
Experimental: as §1, §2, §3

For `O=c1[nH]c(=O)c2[nH]c(=O)[nH]c2[nH]1` [Uric Acid, uric acid], the Km [1] was 4.87 µM, the Km [2] was 4.3 µM and the Km [3] was 5.85 µM. The Km [4] was 23.5 µM.
